This note sets out measurements from patent US10047051B2, “Substituted pyridines and method of use” (AbbVie S.á{acute over (.)}r.l., priority 2015, dated 2018).

One assay addresses T1, CFTR G551D mutant (Homo sapiens, UniProt P13569, G551D).
T1 construct: expressed in transfected cells; host or cells: HEK293 cells, reverse transfection with plasmids
Put plainly: YFP-halide influx assay for the CFTR-G551D mutation (HEK293 cells). In kind it is cell-based. The note with it: forskolin 10.67 μM. An outline of the steps: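 HEK293 cells reverse-transfected with CFTR G551D and halide-sensitive YFP (H148Q/I152L/F47L), expressed 24 h at 37 °C. YFP fluorescence quenching recorded for 7 s after I⁻ injection. Response = 1−F/F0; EC50 derived from 1−F/F0 vs compound concentration.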

The next assay concerns the target T2, CFTR ΔF508 mutant (Homo sapiens, UniProt P13569, DEL508-508).
T2 construct: expressed in transfected cells; host or cells: CFBE41o- cells, adenoviral transduction
As to the kind of experiment: YFP-halide influx assay for the CFTR-ΔF508 mutation (CFBE41o- cells). The note with it: forskolin 10.67 μM; for EC50: from (1−F/F0) vs concentration plot. Format: cell-based. In outline: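 CFBE41o- cells transduced with adenovirus expressing CFTR ΔF508 and halide-sensitive YFP H148Q/I152L/F47L, then held 24 h at 27° C or with a CFTR modulator 24 h at 37° C. Iodide-induced quench recorded 2 min; EC50 from (1−F/F0) at 36 s versus concentration.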

T1 sequence (P13569 whole entry G551D): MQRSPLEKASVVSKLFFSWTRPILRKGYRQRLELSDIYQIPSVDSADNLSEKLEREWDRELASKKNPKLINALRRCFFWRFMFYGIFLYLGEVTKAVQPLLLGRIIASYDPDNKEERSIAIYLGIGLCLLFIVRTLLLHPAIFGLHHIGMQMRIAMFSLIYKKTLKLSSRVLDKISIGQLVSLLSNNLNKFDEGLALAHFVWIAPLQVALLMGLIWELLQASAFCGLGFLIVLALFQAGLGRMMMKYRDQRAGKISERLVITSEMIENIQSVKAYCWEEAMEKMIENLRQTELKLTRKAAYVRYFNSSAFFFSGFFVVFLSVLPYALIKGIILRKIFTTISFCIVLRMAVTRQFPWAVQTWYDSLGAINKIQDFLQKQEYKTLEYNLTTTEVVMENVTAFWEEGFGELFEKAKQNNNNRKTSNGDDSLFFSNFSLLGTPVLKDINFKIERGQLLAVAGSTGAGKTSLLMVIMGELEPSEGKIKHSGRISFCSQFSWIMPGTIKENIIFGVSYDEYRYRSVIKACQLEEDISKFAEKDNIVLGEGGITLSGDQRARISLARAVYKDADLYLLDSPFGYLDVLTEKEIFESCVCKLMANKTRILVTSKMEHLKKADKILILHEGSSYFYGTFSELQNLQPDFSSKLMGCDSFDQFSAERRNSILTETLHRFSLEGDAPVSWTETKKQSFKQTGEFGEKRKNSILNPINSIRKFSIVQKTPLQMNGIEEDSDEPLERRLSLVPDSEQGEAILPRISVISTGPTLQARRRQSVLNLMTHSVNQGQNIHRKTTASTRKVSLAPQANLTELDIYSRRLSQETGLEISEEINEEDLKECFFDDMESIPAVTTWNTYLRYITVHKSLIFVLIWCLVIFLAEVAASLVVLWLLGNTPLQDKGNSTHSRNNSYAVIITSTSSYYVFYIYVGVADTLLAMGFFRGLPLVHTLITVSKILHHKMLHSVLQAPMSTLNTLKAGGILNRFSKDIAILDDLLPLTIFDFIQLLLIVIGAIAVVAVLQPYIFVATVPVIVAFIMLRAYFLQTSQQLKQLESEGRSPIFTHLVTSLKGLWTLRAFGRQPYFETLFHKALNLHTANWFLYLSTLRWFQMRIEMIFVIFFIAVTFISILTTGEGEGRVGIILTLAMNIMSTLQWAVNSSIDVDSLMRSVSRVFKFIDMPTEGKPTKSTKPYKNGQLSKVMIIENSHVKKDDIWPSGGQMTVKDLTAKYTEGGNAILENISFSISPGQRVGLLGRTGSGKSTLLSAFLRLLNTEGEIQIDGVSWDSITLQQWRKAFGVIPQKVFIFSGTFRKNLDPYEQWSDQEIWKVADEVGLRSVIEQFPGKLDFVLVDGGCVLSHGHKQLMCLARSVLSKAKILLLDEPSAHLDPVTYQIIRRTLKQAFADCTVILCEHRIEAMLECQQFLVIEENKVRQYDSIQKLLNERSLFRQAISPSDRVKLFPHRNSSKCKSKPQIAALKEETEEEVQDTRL
T2 sequence (P13569 with tags, fused parts or gaps DEL508-508): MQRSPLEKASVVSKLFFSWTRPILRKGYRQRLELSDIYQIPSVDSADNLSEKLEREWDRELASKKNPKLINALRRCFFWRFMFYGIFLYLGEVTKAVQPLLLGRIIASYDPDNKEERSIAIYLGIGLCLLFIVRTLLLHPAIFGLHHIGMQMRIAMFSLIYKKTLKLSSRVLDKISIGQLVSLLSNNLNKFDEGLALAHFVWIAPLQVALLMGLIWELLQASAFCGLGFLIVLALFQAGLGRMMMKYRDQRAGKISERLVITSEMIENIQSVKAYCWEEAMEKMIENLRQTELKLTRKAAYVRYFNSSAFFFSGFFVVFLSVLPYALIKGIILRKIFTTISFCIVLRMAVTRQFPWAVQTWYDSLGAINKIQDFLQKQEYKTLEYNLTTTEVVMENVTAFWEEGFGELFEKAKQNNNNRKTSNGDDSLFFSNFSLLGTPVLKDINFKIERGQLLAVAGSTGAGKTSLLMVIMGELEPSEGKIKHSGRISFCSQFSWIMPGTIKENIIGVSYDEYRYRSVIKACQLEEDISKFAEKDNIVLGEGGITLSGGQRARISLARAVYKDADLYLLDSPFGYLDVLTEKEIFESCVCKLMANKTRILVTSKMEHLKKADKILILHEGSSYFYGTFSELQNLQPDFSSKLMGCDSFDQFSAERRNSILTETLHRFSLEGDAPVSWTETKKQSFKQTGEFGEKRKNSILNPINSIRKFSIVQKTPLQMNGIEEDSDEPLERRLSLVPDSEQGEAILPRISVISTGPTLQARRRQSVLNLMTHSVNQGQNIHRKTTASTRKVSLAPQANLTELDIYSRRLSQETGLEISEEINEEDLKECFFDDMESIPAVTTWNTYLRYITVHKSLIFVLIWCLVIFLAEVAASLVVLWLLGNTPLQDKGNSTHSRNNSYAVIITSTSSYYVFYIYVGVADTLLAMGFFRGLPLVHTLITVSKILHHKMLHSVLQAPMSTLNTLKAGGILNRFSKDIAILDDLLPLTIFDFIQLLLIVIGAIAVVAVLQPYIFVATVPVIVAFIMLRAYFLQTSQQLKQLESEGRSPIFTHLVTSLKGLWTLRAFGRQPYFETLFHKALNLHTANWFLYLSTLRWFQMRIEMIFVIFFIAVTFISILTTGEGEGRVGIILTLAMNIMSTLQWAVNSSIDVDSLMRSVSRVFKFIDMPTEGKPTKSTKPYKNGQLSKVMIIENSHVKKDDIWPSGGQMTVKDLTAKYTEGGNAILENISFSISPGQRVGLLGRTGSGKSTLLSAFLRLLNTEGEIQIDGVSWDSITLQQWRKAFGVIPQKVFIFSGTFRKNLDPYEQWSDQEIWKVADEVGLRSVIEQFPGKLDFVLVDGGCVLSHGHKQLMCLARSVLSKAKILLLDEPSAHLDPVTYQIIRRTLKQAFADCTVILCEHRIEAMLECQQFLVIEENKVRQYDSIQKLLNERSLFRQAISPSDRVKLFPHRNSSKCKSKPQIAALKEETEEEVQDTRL

For `Nc1cc(S(=O)(=O)c2ccc(C(F)(F)F)cc2)cnc1C(=O)NC[C@H](O)C(F)(F)F` [Compound 64, 3-amino-N-[(2S)-3,3,3-trifluoro-2-hydroxypropyl]-5-{[4-(trifluoromethyl)phenyl]sulfonyl}pyridine-2-carboxamide], on CFTR G551D mutant, the “% Activation” value is 72.5% and the EC50 (usually the concentration needed to bring the measured effect to its halfway point) stood at 0.16 µM. Also, at CFTR ΔF508 mutant, the “% Activation” value is on record as 107.0% and the EC50 turned out to be 0.0013 µM.
As for `CN(Cc1ccc(F)c(F)c1)S(=O)(=O)c1cnc(C(=O)NCC(O)C(F)(F)F)c(N)c1` (stereo not drawn) [Compound 136, 3-amino-5-[(3,4-difluorobenzyl)(methyl)sulfamoyl]-N-(3,3,3-trifluoro-2-hydroxypropyl)pyridine-2-carboxamide], on CFTR G551D mutant, the “% Activation” value was determined as 53.4% and the EC50 is more than 3.33 µM. At CFTR ΔF508 mutant, the “% Activation” value is on record as 113.7% and the EC50 came out at 0.0029 µM.
Take `COCCOCC(O)CNC(=O)c1ncc(S(=O)(=O)c2ccc(C(F)(F)F)cc2)cc1N` (stereo not drawn) [Compound 221, 3-amino-N-[2-hydroxy-3-(2-methoxyethoxy)propyl]-5-{[4-(trifluoromethyl)phenyl]sulfonyl}pyridine-2-carboxamide]: the “% Activation” value on CFTR G551D mutant stood at 55.6%; at CFTR ΔF508 mutant, 101.7%. Further, the EC50 stood at 1.84 µM on CFTR G551D mutant and 0.0545 µM at CFTR ΔF508 mutant.
As for `Nc1cc(S(=O)(=O)c2ccc(OC(F)(F)F)cc2F)cnc1C(=O)N1CC(O)(C(F)(F)F)C1` [Compound 173, (3-amino-5-{[2-fluoro-4-(trifluoromethoxy)phenyl]sulfonyl}pyridin-2-yl)[3-hydroxy-3-(trifluoromethyl)azetidin-1-yl]methanone], on CFTR G551D mutant, the “% Activation” value came to 47.6% and the concentration for a half-maximal effect (EC50) was 0.181 µM. Moreover, on CFTR ΔF508 mutant, the “% Activation” value amounted to 98.3% and the midpoint of the response, the EC50, lay at 0.0026 µM.
As for `Nc1cc(S(=O)(=O)c2cccc(F)c2)cnc1C(=O)N1CC(O)(C(F)(F)F)C1` [Compound 256, {3-amino-5-[(3-fluorophenyl)sulfonyl]pyridin-2-yl}[3-hydroxy-3-(trifluoromethyl)azetidin-1-yl]methanone], on CFTR G551D mutant, the “% Activation” value stood at 45.6% and the EC50 was more than 3.33 µM. At CFTR ΔF508 mutant, the “% Activation” value was determined as 107.4% and the EC50 amounted to 0.00066 µM.
Consider `Nc1cc(S(=O)(=O)c2ccc(C(F)(F)F)cc2)cnc1C(=O)NCC(O)COCC(F)(F)F` (stereo not drawn) [Compound 201, 3-amino-N-[2-hydroxy-3-(2,2,2-trifluoroethoxy)propyl]-5-{[4-(trifluoromethyl)phenyl]sulfonyl}pyridine-2-carboxamide], for which the figures for the “% Activation” value at CFTR G551D mutant and at CFTR ΔF508 mutant were 59.8% and 104.0%, respectively. Also, the EC50 on CFTR G551D mutant stood at 0.523 µM; on CFTR ΔF508 mutant, 0.0147 µM.
In the case of `Nc1cc(S(=O)(=O)c2ccccc2OC(F)(F)F)cnc1C(=O)N1CC(O)C1` [Compound 76, (3-amino-5-{[2-(trifluoromethoxy)phenyl]sulfonyl}pyridin-2-yl)(3-hydroxyazetidin-1-yl)methanone], on CFTR G551D mutant, the “% Activation” value came out at 54.3% and the EC50 was more than 3.33 µM. In addition, at CFTR ΔF508 mutant, the “% Activation” value was found to be 112.0% and it took 0.0043 µM to reach a half-maximal effect (EC50).
Take `COCCS(=O)(=O)c1cc(N)c(C(=O)NC[C@H](C)O)nc1-c1ccc(F)cc1` [Compound 265, 3-amino-6-(4-fluorophenyl)-N-[(2S)-2-hydroxypropyl]-5-[(2-methoxyethyl)sulfonyl]pyridine-2-carboxamide]: the “% Activation” value is 11.24% at CFTR G551D mutant and 92.4% at CFTR ΔF508 mutant. Also, the values for the EC50 at CFTR G551D mutant and on CFTR ΔF508 mutant were 2 µM and 0.141 µM, respectively.
In the same order, the values of `Nc1cc(S(=O)(=O)c2ccc(OC(F)(F)F)cc2)cnc1C(=O)NCC1(O)CCOC1` (stereo not drawn) [Compound 28, 3-amino-N-[(3-hydroxytetrahydrofuran-3-yl)methyl]-5-{[4-(trifluoromethoxy)phenyl]sulfonyl}pyridine-2-carboxamide] are 51.9%, 97.2%, 2.33 µM and 0.0504 µM.
Regarding `CC(C)(C)OCC(O)CNC(=O)c1ncc(S(=O)(=O)c2ccc(C(F)(F)F)cc2F)cc1N` (stereo not drawn) [Compound 224, 3-amino-N-(3-tert-butoxy-2-hydroxypropyl)-5-{[2-fluoro-4-(trifluoromethyl)phenyl]sulfonyl}pyridine-2-carboxamide], on CFTR G551D mutant, the “% Activation” value was found to be 80.6% and the EC50 stood at 0.276 µM. For the same compound, on CFTR ΔF508 mutant, the “% Activation” value is listed as 106.0% and the EC50 was determined as 0.0081 µM.
Turning to `Nc1cc(S(=O)(=O)c2ccc(OC(F)(F)F)cc2)cnc1C(=O)NC[C@H](O)COCC1CC1` [Compound 242, 3-amino-N-[(2S)-3-(cyclopropylmethoxy)-2-hydroxypropyl]-5-{[4-(trifluoromethoxy)phenyl]sulfonyl}pyridine-2-carboxamide], on CFTR G551D mutant, the “% Activation” value turned out to be 71.5% and a half-maximal effect (EC50) was put at 0.841 µM. Moreover, on CFTR ΔF508 mutant, the “% Activation” value turned out to be 103.0% and the EC50 is 0.0254 µM.
Turning to `COCC1(C)CN(C(=O)c2ncc(S(=O)(=O)c3ccc(C(F)(F)F)cc3)cc2N)C1` [Compound 232, (3-amino-5-{[4-(trifluoromethyl)phenyl]sulfonyl}pyridin-2-yl)[3-(methoxymethyl)-3-methylazetidin-1-yl]methanone], on CFTR G551D mutant, the “% Activation” value is given as 66.0% and the EC50 was 1.49 µM. At CFTR ΔF508 mutant, the “% Activation” value is given as 94.5% and the EC50 worked out at 0.0684 µM.
As for `Nc1cc(S(=O)(=O)c2ccc(C(F)(F)F)cc2F)cnc1C(=O)NC[C@@H]1CCOC1` [Compound 114, 3-amino-5-{[2-fluoro-4-(trifluoromethyl)phenyl]sulfonyl}-N-[(3S)-tetrahydrofuran-3-ylmethyl]pyridine-2-carboxamide], on CFTR G551D mutant, the “% Activation” value was 37.9% and the EC50 was more than 10 µM. For the same compound, at CFTR ΔF508 mutant, the “% Activation” value was found to be 109.3% and the EC50 is 0.0191 µM.
On to `CC(C)(C)C1CCN(S(=O)(=O)c2cnc(C(=O)NCC(O)C(F)(F)F)c(N)c2)CC1` (stereo not drawn) [Compound 197, 3-amino-5-[(4-tert-butylpiperidin-1-yl)sulfonyl]-N-(3,3,3-trifluoro-2-hydroxypropyl)pyridine-2-carboxamide], for which, on CFTR G551D mutant, the “% Activation” value was 76.4% and the EC50 was determined as 0.337 µM. For the same compound, at CFTR ΔF508 mutant, the “% Activation” value amounted to 106.7% and the EC50 is 0.0039 µM.
As to `CC1CC(C)CN(S(=O)(=O)c2cnc(C(=O)NCC(O)C(F)(F)F)c(N)c2)C1` (stereo not drawn) [Compound 185, 3-amino-5-[(3,5-dimethylpiperidin-1-yl)sulfonyl]-N-(3,3,3-trifluoro-2-hydroxypropyl)pyridine-2-carboxamide], on CFTR G551D mutant, the “% Activation” value came out at 69.4% and the EC50 was found to be 1.12 µM. Besides, on CFTR ΔF508 mutant, the “% Activation” value stood at 111.3% and the EC50 turned out to be 0.0029 µM.
In the case of `Nc1cc(S(=O)(=O)c2ccc(C(F)(F)F)cc2)cnc1C(=O)NCC1CC1` [Compound 223, 3-amino-N-(cyclopropylmethyl)-5-{[4-(trifluoromethyl)phenyl]sulfonyl}pyridine-2-carboxamide], at CFTR G551D mutant, the “% Activation” value is 19.0% and the EC50 is more than 10 µM. For the same compound, on CFTR ΔF508 mutant, the “% Activation” value is 96.4% and the EC50 turned out to be 0.049 µM.
The matching figures for `Nc1cc(S(=O)(=O)c2ccc(OC(F)(F)F)cc2)cnc1C(=O)N1CC(F)C1` [Compound 67, (3-amino-5-{[4-(trifluoromethoxy)phenyl]sulfonyl}pyridin-2-yl)(3-fluoroazetidin-1-yl)methanone]: 73.6%, 1.59 µM, 110.0% and 0.0258 µM.
Regarding `Nc1cc(S(=O)(=O)c2ccc(OC(F)(F)F)cc2F)cnc1C(=O)NC[C@@H](O)C(F)(F)F` [Compound 117, 3-amino-5-{[2-fluoro-4-(trifluoromethoxy)phenyl]sulfonyl}-N-[(2R)-3,3,3-trifluoro-2-hydroxypropyl]pyridine-2-carboxamide], on CFTR G551D mutant, the “% Activation” value worked out at 79.8% and a half-maximal response (EC50) required 0.218 µM. At CFTR ΔF508 mutant, the “% Activation” value is reported as 107.9% and a half-maximal effect (EC50) was put at 0.0017 µM.
In the same order, the values of `C[C@H](O)CNC(=O)c1nc(NC2CC2)c(S(=O)(=O)c2ccc(OC(F)(F)F)cc2)cc1N` [Compound 285, 3-amino-6-(cyclopropylamino)-N-[(2S)-2-hydroxypropyl]-5-{[4-(trifluoromethoxy)phenyl]sulfonyl}pyridine-2-carboxamide] are 52.5%, 0.776 µM, 86.7% and 0.0042 µM.
For `CC(C)NC(=O)CNC(=O)c1ncc(S(=O)(=O)N2CCC[C@@H]2C)cc1N` [Compound 270, 3-amino-5-{[(2S)-2-methylpyrrolidin-1-yl]sulfonyl}-N-[2-oxo-2-(propan-2-ylamino)ethyl]pyridine-2-carboxamide], at CFTR G551D mutant, the “% Activation” value is given as 23.8% and the EC50 is more than 10 µM. Further, on CFTR ΔF508 mutant, the “% Activation” value came to 100.0% and the EC50 was 0.143 µM.
As for `Nc1cc(S(=O)(=O)c2ccc(C(F)(F)F)cc2)cnc1C(=O)NC[C@@H](O)COCC(F)(F)F` [Compound 248, 3-amino-N-[(2R)-2-hydroxy-3-(2,2,2-trifluoroethoxy)propyl]-5-{[4-(trifluoromethyl)phenyl]sulfonyl}pyridine-2-carboxamide], on CFTR G551D mutant, the “% Activation” value amounted to 91.1% and the EC50 came out at 0.385 µM. In addition, on CFTR ΔF508 mutant, the “% Activation” value amounted to 105.0% and the 50% effective concentration (EC50) turned out to be 0.012 µM.
